Earlier results on one compound are cited in patent publication US20060035881A1, “Use of targeted oxidative therapeutic formulation in endodontic treatment” (priority 2004, published 2006).

One data set relates to E. coli. The note with it: increasing concentration of peroxide in rabbit or human blood containing E. coli.
The test system of data set [1] is peroxide-sensitive E. coli. As to conditions: infused into the blood of rabbits infected with peroxide-sensitive E. coli.

As to `OO` [hydrogen peroxide, Hydrogen peroxide], the “direct bactericidal activity ex vivo” value with E. coli was “no evidence of direct bactericidal activity”. For the same compound, in data set [1], the “bactericidal effect in vivo” value is “no bactericidal effect”.
